Reference: PubChem BioAssay AID180 (DTP/NCI, 2004)
“And” between values parts separate entries of the source, which are not always exact repeats. Equal values may be shown once.

Tested on: BDF1 mice, Adenocarcinoma 755 s.c., tumor weight T/C
Assay: NCI In Vivo Anticancer Drug Screen. Data for tumor model Adenocarcinoma 755 (subcutaneous) in B6D2F1 (BDF1) mice
Details: endpoint: mean tumor weight, higher = larger tumour
In short: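 Transplantable tumor implanted; mice dosed with compound or vehicle; survival or tumor size recorded; ratio of treated to vehicle control reported.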

[1] = dose: 14.0 mg/kg/injection, schedule: Q01DX011 (ip), vehicle: carboxymethylcellulose (CMC)

`CCN(CC)c1ccc(/C=C/c2ccnc3ccccc23)cc1` was tested, and the T/C (dose: 2.5 mg/kg/injection, schedule: Q01DX011 (ip), vehicle: other) was 86 % of control, the T/C (dose: 3.03 mg/kg/injection, schedule: Q01DX011 (ip), vehicle: carboxymethylcellulose (CMC)) was 77 % of control and the T/C (dose: 3.23 mg/kg/injection, schedule: Q01DX011 (ip), vehicle: other) was 84 % of control. The T/C (dose: 4.8 mg/kg/injection, schedule: Q01DX011 (ip), vehicle: carboxymethylcellulose (CMC)) was 74 % of control, the T/C (dose: 5.0 mg/kg/injection, schedule: Q01DX011 (ip), vehicle: other) was 91 % of control and the T/C (dose: 6.0 mg/kg/injection, schedule: Q01DX011 (ip), vehicle: carboxymethylcellulose (CMC)) was 69 % of control. The T/C (dose: 6.05 mg/kg/injection, schedule: Q01DX011 (ip), vehicle: carboxymethylcellulose (CMC)) was 119 % of control, the T/C (dose: 6.45 mg/kg/injection, schedule: Q01DX011 (ip), vehicle: other) was 115 % of control and the T/C (dose: 8.0 mg/kg/injection, schedule: Q01DX011 (ip), vehicle: carboxymethylcellulose (CMC)) was 55 % of control. For the same compound, the T/C (dose: 9.68 mg/kg/injection, schedule: Q01DX011 (ip), vehicle: carboxymethylcellulose (CMC)) was 64 % of control, the T/C (dose: 12.0 mg/kg/injection, schedule: Q01DX011 (ip), vehicle: carboxymethylcellulose (CMC)) was 46 % of control and the T/C (dose: 12.1 mg/kg/injection, schedule: Q01DX011 (ip), vehicle: carboxymethylcellulose (CMC)) was 31 % of control. The T/C (dose: 12.9 mg/kg/injection, schedule: Q01DX011 (ip), vehicle: other) was 55 % of control, the T/C [1] was 70 % of control and the T/C (dose: 15.0 mg/kg/injection, schedule: Q01DX011 (ip), vehicle: other) was 25 % of control. The T/C (dose: 16.13 mg/kg/injection, schedule: Q01DX011 (ip), vehicle: carboxymethylcellulose (CMC)) was 52 % of control.
With `O=C1Nc2cc3c(c4cccc1c24)CCCC3` the T/C (dose: 1.25 mg/kg/injection, schedule: Q01DX011 (ip), vehicle: carboxymethylcellulose (CMC)) was 111 % of control and the T/C (dose: 5.0 mg/kg/injection, schedule: Q01DX011 (ip), vehicle: carboxymethylcellulose (CMC)) was 95 % of control.
`NC(C=O)C(O)C(O)C(O)CO` (stereo unspecified) was tested, and the T/C (dose: 250.0 mg/kg/injection, schedule: Q01DX011 (ip), vehicle: carboxymethylcellulose (CMC)) was 104 % of control and 204 % of control, the T/C (dose: 500.0 mg/kg/injection, schedule: Q01DX011 (ip), vehicle: carboxymethylcellulose (CMC)) was 225 % of control and the T/C (dose: 1000.0 mg/kg/injection, schedule: Q01DX011 (ip), vehicle: carboxymethylcellulose (CMC)) was 102 % of control and 110 % of control. For the same compound, the T/C (dose: 2000.0 mg/kg/injection, schedule: Q01DX011 (ip), vehicle: methylcellulose (MC)) was 89 % of control and the T/C (dose: 2500.0 mg/kg/injection, schedule: Q01DX011 (ip), vehicle: methylcellulose (MC)) was 72 % of control.
`CCCNc1ncnc2c1cnn2C1CCCCO1` (stereo unspecified) was tested, and the T/C (dose: 3.12 mg/kg/injection, schedule: Q01DX011 (ip), vehicle: methylcellulose (MC)) was 67 % of control, the T/C (dose: 6.25 mg/kg/injection, schedule: Q01DX011 (ip), vehicle: methylcellulose (MC)) was 54 % of control and the T/C (dose: 12.5 mg/kg/injection, schedule: Q01DX011 (ip), vehicle: methylcellulose (MC)) was 44 % of control.
`[Cl][Pt+2]([Cl])([Cl])[Cl].[Na+].[S-]c1ncnc2nc[nH]c12.[S-]c1ncnc2nc[nH]c12` was tested, and the T/C (dose: 1.0 mg/kg/injection, schedule: Q01DX011 (ip), vehicle: carboxymethylcellulose (CMC)) was 90 % of control, the T/C (dose: 1.7 mg/kg/injection, schedule: Q01DX011 (ip), vehicle: carboxymethylcellulose (CMC)) was 101 % of control and the T/C (dose: 2.0 mg/kg/injection, schedule: Q01DX011 (ip), vehicle: carboxymethylcellulose (CMC)) was 43 % of control. For the same compound, the T/C (dose: 3.5 mg/kg/injection, schedule: Q01DX011 (ip), vehicle: carboxymethylcellulose (CMC)) was 31 % of control, the T/C (dose: 4.0 mg/kg/injection, schedule: Q01DX011 (ip), vehicle: saline) was 5 % of control and the T/C (dose: 7.0 mg/kg/injection, schedule: Q01DX011 (ip), vehicle: carboxymethylcellulose (CMC)) was 3 % of control and 6 % of control. For the same compound, the T/C (dose: 8.0 mg/kg/injection, schedule: Q01DX011 (ip), vehicle: saline) was 4 % of control, the T/C (dose: 10.0 mg/kg/injection, schedule: Q01DX011 (ip), vehicle: carboxymethylcellulose (CMC)) was 21 % of control and the T/C [1] was 1 % of control and 2 % of control. For the same compound, the T/C (dose: 20.0 mg/kg/injection, schedule: Q01DX011 (ip), vehicle: carboxymethylcellulose (CMC)) was 1 % of control, the T/C (dose: 28.0 mg/kg/injection, schedule: Q01DX011 (ip), vehicle: carboxymethylcellulose (CMC)) was 5 % of control and the T/C (dose: 32.0 mg/kg/injection, schedule: Q01DX011 (ip), vehicle: saline) was 1 % of control. The T/C (dose: 43.8 mg/kg/injection, schedule: Q01DX011 (oral), vehicle: saline) was 96 % of control, the T/C (dose: 87.5 mg/kg/injection, schedule: Q01DX011 (oral), vehicle: saline) was 12 % of control and the T/C (dose: 175.0 mg/kg/injection, schedule: Q01DX011 (oral), vehicle: saline) was 7 % of control.
In the case of `N/C(=N\O)c1nsnc1N`, the T/C (dose: 50.0 mg/kg/injection, schedule: Q01DX011 (ip), vehicle: carboxymethylcellulose (CMC)) is reported as 85 % of control and the T/C (dose: 100.0 mg/kg/injection, schedule: Q01DX011 (ip), vehicle: carboxymethylcellulose (CMC)) is reported as 71 % of control.
For `CCCCn1cnc2c(SCC(=O)O)nc(N)nc21`, the T/C (dose: 25.0 mg/kg/injection, schedule: Q01DX011 (ip), vehicle: methylcellulose (MC)) was 54 % of control, the T/C (dose: 80.0 mg/kg/injection, schedule: Q01DX011 (ip), vehicle: methylcellulose (MC)) was 58 % of control and the T/C (dose: 250.0 mg/kg/injection, schedule: Q01DX011 (ip), vehicle: methylcellulose (MC)) was 69 % of control.
